Assay results: patent publication US20050163835A1, “Pharmaceutical formulation of iressa comprising a water-soluble cellulose derivative” (AstraZeneca AB, priority 2002, published 2005)

Columns and labels:
[1] = pH shift dissolution (precipitation) test; assay type: physicochemical
Procedure: The formulations described in the examples above were dissoluted in media comprising 500 ml 0.07N HCl (approximately pH 1.5) and sodium chloride (0.2% w/v) for one hour at 37° C. (paddle speed 100 rpm). A 5 ml sample was taken at 60 minutes and the media replaced.
10 ml of a 2.5M KH2PO4/16.72% (w/v) NaOH solution was then added to shift the pH to 6.5. 5ml samples were then removed with a plastic syringe at 2, 5, 15, 30, 45 and 60 minutes after pH adjustment and media replaced after every sampling time point. Each sample was centrifuged (14,000 rpm) at ambient temperature for 15 minutes and then analysed by HPLC using the following conditions:

[2] = pH-dependent aqueous solubility of the Agent; assay type: physicochemical; details: free-base form

COc1cc2ncnc(Nc3ccc(F)c(Cl)c3)c2cc1OCCCN1CCOCC1 [Agent, 4-(3′-chloro-4′-fluoroanilino)-7-methoxy-6-(3-morpholinopropoxy)quinazoline]
% Agent in solution at 2 mins after pH adjustment to pH 6.5 ([1]; 2 mins after shift from pH 1.5 to pH 6.5, HPLC of centrifuged sample): 6.5%
% Agent in solution at 5 mins after pH adjustment to pH 6.5 ([1]; 5 mins after shift from pH 1.5 to pH 6.5, HPLC of centrifuged sample): 6.9%
% Agent in solution after 60 mins in acidic media (~pH 1.5) ([1]; 500 ml 0.07N HCl, 0.2% w/v NaCl, 37° C., before pH shift, HPLC): 102.6%
solubility in aqueous media ([2]; above pH 7): practically insoluble
aqueous solvent required to dissolve 1 g of Agent ([2]; pH 6): ≥ 10000 mL
